Assay [1] has as its target T1, human recombinant KDM1A (LSD1)/CoRest (Homo sapiens, UniProt O60341).
T1 construct: made in house; host or cells: E. coli
As to the kind of experiment: Assay of enzyme inhibition of KDM1A (LSD1), Amplex UltraRed/peroxidase coupled. Format: biochemical. As to conditions: 15 min preincubation, 4.5 μM mono-methylated H3-K4 peptide, range classes, read-out: IC50 [μM], KDM1A inhibition assay. A digest of the protocol:
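KDM1A/CoRest complex with inhibitor (e.g. 0–100 μM) and Amplex UltraRed/peroxidase preincubated 15 min at RT. Substrate: mono-methylated H3K4 21-mer peptide in 50 mM Tris pH 8, 0.05 mg/ml BSA, aerobic. IC50 from duplicates run twice, background-corrected.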

The subject of assay [2] is Acute promyelocytic leukemia NB4 cells. The experiment in a line: Cell growth (CellTiter-Fluor cell viability assay). It counts as cell-based. As to conditions: Homo sapiens, NB-4, 48 h, range classes, read-out: IC50 [μM], cell growth inhibitory assay. An excerpt:
CellTiter-Flor® (Promega) is as a nonlytic, single-reagent-addition fluorescence assay that measures the relative number of living cells in a culture population after experimental manipulation. The CellTiter-Fluor™ Cell Viability Assay measures the conserved and constitutive protease activity within live cells and therefore acts as a marker for cell viability.
Acute promyelocytic leukemia NB4 cells, (obtained from the Deutsche Sammlung von Mikroorganismen and Zellkulturen) in exponential growth, were incubated for 48 h with different concentrations of the inhibitors. After 48 h a volume of CellTiter-Fluor® Reagent equal to one fifth of volume of cell culture medium was added. The content was mixed and incubates for at least 90 min at 37° C. degree to obtain a stable signal. The fluorescence was recorded using an excitation wavelength of 360 nm and an emission at 535 nm. The IC50 was calculated using GraphPad Software.

Structures can show the parent of a compound that is named as a salt. Bounds are passed on as bounds.

In the case of `N[C@]1(Cc2ccc3ccccc3c2)C[C@H]1c1ccc(NC(=O)Cc2ccccc2)cc1` (relative stereo) [Example A-46, N-[4-[(trans-2-amino-2-(2-naphthylmethyl)cyclopropyl]phenyl]-2-phenyl-acetamide hydrochloride], the results for the IC50 in assay [1] and in assay [2] were less than 0.1 µM and not above 10 µM, respectively.

As to `CC[C@@]1(N)C[C@H]1c1ccc(NC(=O)Cc2cccc3ccccc23)cc1` (relative stereo) [Example A-68, N-[4-trans-[2-amino-2-ethyl-cyclopropyl]phenyl]-2-(1-naphthyl) acetamide hydrochloride], the IC50 was less than 0.1 µM in assay [1] and 10 to 50 µM in assay [2].

As to `N[C@]1(Cc2ccc3ccccc3c2)C[C@H]1c1ccc(NC(=O)c2ccc(NC(=O)OCc3ccccc3)cc2)cc1` (relative stereo) [Example A-70, benzyl N-[4-[[4-[trans-2-amino-2-(2-naphthylmethyl)cyclopropyl]phenyl]carbamoyl]phenyl]carbamate 2,2,2-trifluoroacetic acid], the IC50 in assay [1] is 0.1 to 1 µM; in assay [2], not above 10 µM.

With `CC[C@@]1(N)C[C@H]1c1ccc(NC(=O)c2cccc3ccccc23)cc1` (relative stereo) [Example A-71, N-[4-(trans-2-amino-2-ethyl-cyclopropyl)phenyl] naphthalene-1-carboxamide hydrochloride], the figures for the IC50 in assay [1] and in assay [2] were less than 0.1 µM and not above 10 µM, respectively.

For `N[C@]1(Cc2ccc3ccccc3c2)C[C@H]1c1ccc(NC(=O)c2ccc3ccccc3c2)cc1` (relative stereo) [Example A-72, N-[4-[trans-2-amino-2-(2-naphthylmethyl)cyclopropyl]phenyl] naphthalene-2-carboxamide hydrochloride], the IC50 was 0.1 to 1 µM in assay [1] and not above 10 µM in assay [2].

Regarding `N[C@]1(Cc2ccc3ccccc3c2)C[C@H]1c1ccc(NC(=O)c2ccc(-c3ccccc3)cc2)cc1` (relative stereo) [Example A-73, N-[4-[trans-2-amino-2-(2-naphthylmethyl)cyclopropyl]phenyl]-4-phenyl-benzamide hydrochloride], the IC50 in assay [1] lay within 0.1 to 1 µM; in assay [2], 10 to 50 µM.

Regarding `CC[C@@]1(N)C[C@H]1c1ccc(NC(=O)Cc2ccc3ccccc3c2)cc1` (relative stereo) [Example A-74, N-[4-trans-2-amino-2-ethyl-cyclopropyl] phenyl]-2-(2-naphthyl) acetamide hydrochloride], the half-maximal inhibitory concentration (IC50) in assay [1] is less than 0.1 µM; in assay [2] it was 10 to 50 µM.

Regarding `N[C@]1(c2ccccc2)C[C@H]1c1ccc(NC(=O)c2ccccc2)cc1` (relative stereo) [Example A-75, N-[4-[trans-2-amino-2-phenyl-cyclopropyl]phenyl] benzamide hydrochloride], the IC50 in assay [1] was less than 0.1 µM; in assay [2] it was 10 to 50 µM.

Turning to `N[C@]1(Cc2ccc3ccccc3c2)C[C@H]1c1ccc(NC(=O)Cc2cccc3ccccc23)cc1` (relative stereo) [Example A-76, N-[4-[trans-2-amino-2-(2-naphthylmethyl)cyclopropyl]phenyl]-2-(1-naphthyl)acetamide hydrochloride], the IC50 is 0.1 to 1 µM in assay [1] and not above 10 µM in assay [2].

`CC[C@@]1(N)C[C@H]1c1cccc(NC(=O)Cc2cccc3ccccc23)c1` (relative stereo) [Example A-77, N-[3-[trans-2-amino-2-ethyl-cyclopropyl]phenyl]-2-(1-naphthyl) acetamide hydrochloride]: the IC50 in assay [1] is 0.1 to 1 µM; in assay [2], 10 to 50 µM.

As for `N[C@]1(Cc2ccc3ccccc3c2)C[C@H]1c1ccc(NC(=O)c2cccc(Cl)c2)cc1` (relative stereo) [Example A-79, N-[4-[trans-2-amino-2-(2-naphthylmethyl)cyclopropyl]phenyl]-3-chloro-benzamide hydrochloride], the IC50 in assay [1] is less than 0.1 µM; in assay [2] it was 10 to 50 µM.

In the case of `CC[C@@]1(N)C[C@H]1c1cccc(NC(=O)c2cccc(Cl)c2)c1` (relative stereo) [Example A-80, N-[3-[trans-2-amino-2-ethyl-cyclopropyl]phenyl]-3-chloro-benzamide hydrochloride], the values for the IC50 in assay [1] and in assay [2] were 0.1 to 1 µM and 10 to 50 µM, respectively.

As to `CC[C@@]1(N)C[C@H]1c1ccc(NC(=O)c2ccc(N3CCOC3=O)cc2)cc1` (relative stereo) [Example A-83, N-[4-[trans-2-amino-2-ethyl-cyclopropyl]phenyl]-4-(2-oxooxazolidin-3-yl)benzamide hydrochloride], the IC50 in assay [1] is less than 0.1 µM; in assay [2] it was not above 10 µM.

In the case of `N[C@]1(c2ccccc2)C[C@H]1c1ccc(NC(=O)c2cccc(NC(=O)OCc3ccccc3)c2)cc1` (relative stereo) [Example A-84, benzyl N-[3-[(4-[trans-2-amino-2-phenyl-cyclopropyl]phenyl)carbamoyl]phenyl]carbamate 2,2,2-trifluoroacetic acid], the IC50 in assay [1] is less than 0.1 µM; in assay [2], 10 to 50 µM.

Take `N[C@]1(c2ccccc2)C[C@H]1c1ccc(NC(=O)c2ccc3ccccc3c2)cc1` (relative stereo) [Example A-85, N-[4-[trans-2-amino-2-phenyl-cyclopropyl]phenyl] naphthalene-2-carboxamide hydrochloride]: the IC50 in assay [1] is less than 0.1 µM; in assay [2], not above 10 µM.

Turning to `CC[C@@]1(N)C[C@H]1c1ccc(NC(=O)c2ccccc2)c(F)c1` (relative stereo) [Example A-86, N-[4-[trans-2-amino-2-ethyl-cyclopropyl]-2-fluoro-phenyl]benzamide hydrochloride], the figures for the IC50 in assay [1] and in assay [2] were less than 0.1 µM and 50 to 100 µM, respectively.

As to `CC[C@@]1(N)C[C@H]1c1ccc(NC(=O)c2ccc(-c3ccccc3)cc2)c(F)c1` (relative stereo) [Example A-87, N-[4-[trans-2-amino-2-ethyl-cyclopropyl]-2-fluoro-phenyl]-4-phenyl-benzamide hydrochloride], the values for the IC50 in assay [1] and in assay [2] were less than 0.1 µM and 10 to 50 µM, respectively.

Regarding `CC[C@@]1(N)C[C@H]1c1ccc(NC(=O)c2ccc(N3CCOCC3)cc2)cc1` (relative stereo) [Example A-88, N-[4-[trans-2-amino-2-ethyl-cyclopropyl]phenyl]-4-morpholino-benzamide 2,2,2-trifluoroacetic acid], the IC50 in assay [1] was less than 0.1 µM; in assay [2], 10 to 50 µM.

As for `N[C@]1(c2ccccc2)C[C@H]1c1ccc(NC(=O)c2ccc(-c3ccccc3)cc2)cc1` (relative stereo) [Example A-89, N-[4-[trans-2-amino-2-phenyl-cyclopropyl]phenyl]-4-phenyl-benzamide 2,2,2-trifluoroacetic acid], the IC50 in assay [1] is less than 0.1 µM; in assay [2] it was not above 10 µM.

For the compound `N[C@]1(c2ccccc2)C[C@H]1c1ccc(NC(=O)c2cccc3ccccc23)cc1` (relative stereo) [Example A-90, N-[4-[trans-2-amino-2-phenyl-cyclopropyl]phenyl] naphthalene-1-carboxamide hydrochloride], the half-inhibitory concentration (IC50) in assay [1] is less than 0.1 µM; in assay [2] it was not above 10 µM.

`CC[C@@]1(N)C[C@H]1c1cccc(NC(=O)c2ccc(-c3ccccc3)cc2)c1` (relative stereo) [Example A-91, N-[3-[trans-2-amino-2-ethyl-cyclopropyl]phenyl]-4-phenyl-benzamide hydrochloride]: the IC50 lay within 0.1 to 1 µM in assay [1] and 10 to 50 µM in assay [2].

Source of the values: patent US9944589B2, “Cycloproplyamine derivatives useful as inhibitors of histone demethylases KDM1A” (Istituto Europeo de Oncologia S.r.L., priority 2012, dated 2018).
